Test results published in patent publication US12043600B2, “Microbiocidal compounds” (SYNGENTA CROP PROTECTION AG, priority 2018, dated 2024).
Read-outs that look alike come from different tables or passages of the source.

Columns and labels:
[1] = test system: Mycosphaerella arachidis (Cercospora arachidicola); test: Mycosphaerella arachidis (Cercospora arachidicola)/Liquid Culture (Early Leaf Spot); assay type: cell-based; conditions: liquid culture, compared to untreated control
Protocol: (§1) Conidia of the fungus from cryogenic storage are directly mixed into nutrient broth (PDB potato dextrose broth). After placing a (DMSO) solution of test compound into a microtiter plate (96-well format), the nutrient broth containing the fungal spores is added.

[2] = test system: Blumeria graminis f. sp. tritici (Erysiphe graminis f. sp. tritici); test: Blumeria graminis f. sp. tritici/Wheat/Leaf Disc Preventative (Powdery Mildew on Wheat); assay type: in vivo; conditions: foliar, wheat leaf disc preventative, compared to untreated control
Protocol: Wheat leaf segments cv. Kanzler are placed on agar in a multiwell plate (24-well format) and sprayed with the formulated test compound diluted in water. The leaf disks are inoculated by shaking powdery mildew infected plants above the test plates 1 day after application. The inoculated leaf disks are incubated at 20° C. and 60% rh under a light regime of 24 h darkness followed by 12 h light/12 h darkness in a climate chamber and the activity of a compound is assessed as percent disease control compared to untreated when an appropriate level of disease damage appears on untreated check leaf segments (6-8 days after application).

[3] = test system: Phytophthora infestans; test: whole plant or invertebrate; assay type: in vivo; conditions: in Solanum lycopersicum, foliar, read-out: control of Phytophthora infestans
[4] = test system: Monographella nivalis (Microdochium nivale); test: Monographella nivalis (Microdochium nivale)/Liquid Culture (Foot Rot Cereals); assay type: cell-based; conditions: liquid culture, compared to untreated control
Protocol: as §1

[5] = test system: Mycosphaerella graminicola (Septoria tritici); test: Mycosphaerella graminicola (Septoria tritici)/Liquid Culture (Septoria Blotch); assay type: cell-based; conditions: Zymoseptoria tritici; for inhibition of growth at 20 ppm: liquid culture, compared to untreated control
Protocol: Conidia of the fungus from cryogenic storage are directly mixed into nutrient broth (PDB potato dextrose broth). After placing a (DMSO) solution of test compound into a microtiter plate (96-well format), the nutrient broth containing the fungal spores is added. […] The data are presented as the percentage of disease control of each compound for the biological tests against G. lagenarium (Example B3), P. recondita preventative (Example B13), P. teres (Example B15) and M. graminicola (Example B19) as described above. The testing rates of each biological test is specifically described in table C1 below.

[6] = test system: Plasmopara viticola; test: whole plant or invertebrate; assay type: in vivo; conditions: foliar, read-out: control of Plasmopara viticola
[7] = test system: Phakopsora pachyrhizi; test: Phakopsora pachyrhizi/Soybean/Preventative (Soybean Rust); assay type: in vivo; conditions: 288 h
[8] = test system: Puccinia recondita f. sp. tritici; test: Puccinia recondita f. sp. tritici/Wheat/Leaf Disc Preventative (Brown Rust); assay type: in vivo; conditions: foliar; for pest or weed control at 200 ppm: wheat leaf disc preventative, compared to untreated control, read-out: control of Puccinia recondita f. sp. tritici
[9] = test system: Phaeosphaeria nodorum (Septoria nodorum); test: Phaeosphaeria nodorum (Septoria nodorum)/Wheat/Leaf Disc Preventative (Glume Blotch); assay type: in vivo; conditions: Parastagonospora nodorum, foliar, wheat leaf disc preventative, compared to untreated control
Protocol: Wheat leaf segments cv. Kanzler are placed on agar in a multiwell plate (24-well format) and sprayed with the formulated test compound diluted in water. The leaf disks are inoculated with a spore suspension of the fungus 2 days after application. The inoculated test leaf disks are incubated at 20° C. and 75% rh under a light regime of 12 h light/12 h darkness in a climate cabinet and the activity of a compound is assessed as percent disease control compared to untreated when an appropriate level of disease damage appears in untreated check leaf disks (5-7 days after application).

[10] = test system: Magnaporthe grisea (Pyricularia oryzae); test: whole plant or invertebrate; assay type: in vivo; conditions: foliar, read-out: control of Magnaporthe grisea
[11] = test system: Glomerella lagenarium (Colletotrichum lagenarium); test: Glomerella lagenarium (Colletotrichum lagenarium)/Liquid Culture (Anthracnose); assay type: cell-based; conditions: Colletotrichum orbiculare, liquid culture, compared to untreated control
[12] = foliar, soybean leaf disc preventative, compared to untreated control, read-out: control of Phakopsora pachyrhizi
[13] = Phakopsora pachyrhizi (Soybean rust)
[14] = Phakopsora pachyrhizi (Soybean rust), read-out: control (%)

| Compound | inhibition of growth at 20 ppm [1] [%] | pest or weed control at 200 ppm [2] [%] | melting point [°C] | pest or weed control at 200 ppm [3] [%] | inhibition of growth at 20 ppm [4] [%] | inhibition of growth at 20 ppm [5] [%] | pest or weed control at 200 ppm [6] [%] | pest or weed control at 200 ppm [8] [%] | pest or weed control at 200 ppm [9] [%] | other results |
| --- | --- | --- | --- | --- | --- | --- | --- | --- | --- | --- |
| CO/C=C(\Oc1cc(-n2ccc(C(F)(F)F)n2)cc(F)c1C)C(=O)OC [Compound E-3, methyl (Z)-2-[3-fluoro-2-methyl-5-[3-(trifluoromethyl)pyrazol-1-yl]phenoxy]-3-methoxy-prop-2-enoate] | ≥ 80 | ≥ 80 | 133 to 135 | ≥ 80 | ≥ 80 | ≥ 80 | ≥ 80 | ≥ 80 | ≥ 80 | pest or weed control at 200 ppm [7, 12]: ≥ 50% |
| CCC(CC)c1ccn(-c2ccc(C)c(O/C(=C\OC)C(=O)OC)c2)n1 [Compound E-4, methyl (Z)-2-[5-[3-(1-ethylpropyl)pyrazol-1-yl]-2-methyl-phenoxy]-3-methoxy-prop-2-enoate] | ≥ 80 | ≥ 80 | 108 to 111 | ≥ 80 | ≥ 80 | ≥ 80 |  | ≥ 80 | ≥ 80 | pest or weed control at 200 ppm [7, 12]: ≥ 50% |
| CO/C=C(\Oc1cccc(-n2ccc(C)n2)c1)C(=O)OC [Compound E-9, methyl (Z)-3-methoxy-2-[3-(3-methylpyrazol-1-yl)phenoxy]prop-2-enoate] | ≥ 80 |  |  |  | ≥ 80 | ≥ 80 |  |  |  |  |
| CO/C=C(\Oc1cc(-n2cc(Br)c(C3CCCCC3)n2)ccc1C)C(=O)OC [Compound E-10, methyl (Z)-2-[5-(4-bromo-3-cyclohexyl-pyrazol-1-yl)-2-methyl-phenoxy]-3-methoxy-prop-2-enoate] | ≥ 80 |  | 120 to 126 |  | ≥ 80 | ≥ 80 |  |  |  | pest or weed control at 200 ppm [10]: ≥ 80% |
| CCCOc1ccn(-c2ccc(C)c(O/C(=C\OC)C(=O)OC)c2)n1 [Compound E-13, methyl (Z)-3-methoxy-2-[2-methyl-5-(3-propoxypyrazol-1-yl)phenoxy]prop-2-enoate] |  |  | 85 to 87 |  |  |  |  |  |  |  |
| CO/C=C(\Oc1cccc(-n2ccc(C3CC3)n2)c1)C(=O)OC [Compound E-14, methyl (Z)-2-[3-(3-cyclopropylpyrazol-1-yl)phenoxy]-3-methoxy-prop-2-enoate] | ≥ 80 |  |  |  | ≥ 80 | ≥ 80 |  |  |  | inhibition of growth at 20 ppm [11]: ≥ 80% |
| CO/C=C(\Oc1cc(-n2ccc(C(F)(F)F)n2)cc(OC)c1C)C(=O)OC [Compound E-22, methyl (Z)-3-methoxy-2-[3-methoxy-2-methyl-5-[3-(trifluoromethyl)pyrazol-1-yl]phenoxy]prop-2-enoate] | ≥ 80 | ≥ 80 | 153 to 156 | ≥ 80 | ≥ 80 | ≥ 80 |  | ≥ 80 |  |  |
| CO/C=C(\Oc1cc(-n2ccc(CSC)n2)ccc1C)C(=O)OC [Compound E-76, methyl (Z)-3-methoxy-2-[2-methyl-5-[3-(methylsulfanylmethyl)pyrazol-1-yl]phenoxy]prop-2-enoate] | ≥ 80 |  | 78 to 80 | ≥ 80 | ≥ 80 | ≥ 80 | ≥ 80 | ≥ 80 |  | pest or weed control at 200 ppm [10]: ≥ 80% |
| CO/C=C(\Oc1cc(-n2ccc(Br)n2)ccc1Br)C(=O)OC [Compound E-84, methyl (Z)-2-[2-bromo-5-(3-bromopyrazol-1-yl)phenoxy]-3-methoxy-prop-2-enoate] | ≥ 80 | ≥ 80 |  |  | ≥ 80 | ≥ 80 | ≥ 80 | ≥ 80 | ≥ 80 | inhibition of growth at 20 ppm [11]: ≥ 80%; pest or weed control at 200 ppm [7, 12]: ≥ 50% |
| CO/C=C(\Oc1cc(-n2ccc(C)n2)ccc1C1CC1)C(=O)OC [Compound E-106, methyl (Z)-2-[2-cyclopropyl-5-(3-methylpyrazol-1-yl)phenoxy]-3-methoxy-prop-2-enoate] |  |  | 189 to 191 |  |  |  | ≥ 80 | ≥ 80 |  |  |
| CCc1ccc(-n2ccc(C)n2)cc1O/C(=C\OC)C(=O)OC [Compound E-107, methyl (Z)-2-[2-ethyl-5-(3-methylpyrazol-1-yl)phenoxy]-3-methoxy-prop-2-enoate] |  |  | 169 to 171 |  |  | ≥ 80 |  | ≥ 80 |  |  |
| CO/C=C(\Oc1cc(-n2cc(Cl)c(Cl)n2)ccc1C)C(=O)OC [Compound E-111, methyl (Z)-2-[5-(3,4-dichloropyrazol-1-yl)-2-methyl-phenoxy]-3-methoxy-prop-2-enoate] | ≥ 80 | ≥ 80 | 140 to 144 |  | ≥ 80 |  | ≥ 80 |  | ≥ 80 | inhibition of growth at 20 ppm [11]: ≥ 80% |
| CO/C=C(\Oc1cc(-n2ncc(C(F)(F)F)n2)ccc1C)C(=O)OC [Compound F-6, methyl (Z)-3-methoxy-2-[2-methyl-5-[4-(trifluoromethyl)triazol-2-yl]phenoxy]prop-2-enoate] | ≥ 80 | ≥ 80 | 107 to 109 | ≥ 80 | ≥ 80 | ≥ 80 | ≥ 80 |  | ≥ 80 | pest or weed control at 200 ppm [10]: ≥ 80%; inhibition of growth at 20 ppm [11]: ≥ 80%; pest or weed control at 0.6 ppm [7, 13]: 0%; pest or weed control at 2 ppm [7, 13]: 0%; pest or weed control at 6 ppm [7, 13]: 20%; pest or weed control at 20 ppm [7, 13]: 80%; pest or weed control at 60 ppm [7, 13]: 100%; pest or weed control at 200 ppm [7, 14]: 100% |
| CO/C=C(\Oc1cc(-n2cccc2)ccc1C)C(=O)OC [Compound X-2, reference compound] |  |  |  |  |  |  |  |  |  | pest or weed control at 0.6 ppm [7, 13]: 0%; pest or weed control at 2 ppm [7, 13]: 0%; pest or weed control at 6 ppm [7, 13]: 0%; pest or weed control at 20 ppm [7, 13]: 0%; pest or weed control at 60 ppm [7, 13]: 70%; pest or weed control at 200 ppm [7, 14]: 100% |
| CO/C=C(\Oc1cc(-c2cccc(C(F)(F)F)n2)ccc1C)C(=O)OC [Compound X-3, reference compound] |  |  |  |  |  |  |  |  |  | pest or weed control at 0.6 ppm [7, 13]: 0%; pest or weed control at 2 ppm [7, 13]: 0%; pest or weed control at 6 ppm [7, 13]: 0%; pest or weed control at 20 ppm [7, 13]: 10%; pest or weed control at 60 ppm [7, 13]: 50%; pest or weed control at 200 ppm [7, 14]: 85% |
| CCCc1ccn(-c2ccc(C)c(O/C(=C\OC)C(=O)OC)c2)n1 [drawing 151] |  |  |  |  |  |  |  |  |  | inhibition of growth at 6 ppm ([5]; M. graminicola (B19), 6 ppm, read-out: Disease control (%)): 100%; pest or weed control at 60 ppm ([8]; P. recondita prev (B13), 60 ppm, read-out: Disease control (%)): 70% |
